From the NIST ThermoML archive (doi:10.1016/j.jct.2007.11.002)
± gives the expanded uncertainty stated by the source.

Settings: 101.33 kPa, Liquid; for viscosity: Capillary tube (Ostwald / Ubbelohde) method; for mass density: Vibrating tube method

Structure (SMILES) | viscosity (298.15 K) | mass density (298.15 K) | viscosity (303.15 K) | mass density (303.15 K) | viscosity (313.15 K) | mass density (313.15 K) | viscosity (323.15 K) | mass density (323.15 K)
c1ccccc1 [benzene] | 0.601 ± 0.007 mPa·s | 873.58 ± 0.09 kg/m3 | 0.563 ± 0.007 mPa·s | 868.23 ± 0.09 kg/m3 | 0.494 ± 0.007 mPa·s | 857.38 ± 0.1 kg/m3 | 0.436 ± 0.007 mPa·s | 846.62 ± 0.1 kg/m3
C1CCCCC1 [cyclohexane] | 0.904 ± 0.009 mPa·s | 773.25 ± 0.24 kg/m3 | 0.809 ± 0.009 mPa·s | 769.18 ± 0.24 kg/m3 | 0.698 ± 0.008 mPa·s | 759.58 ± 0.24 kg/m3 | 0.604 ± 0.008 mPa·s | 750.03 ± 0.24 kg/m3
Cc1ccccc1 [toluene] | 0.553 ± 0.007 mPa·s | 862.11 ± 0.23 kg/m3 | 0.523 ± 0.007 mPa·s | 857.62 ± 0.23 kg/m3 | 0.471 ± 0.007 mPa·s | 847.87 ± 0.25 kg/m3 | 0.422 ± 0.007 mPa·s | 838.42 ± 0.29 kg/m3
CN1CCOCC1 [N-methylmorpholine] | 0.881 ± 0.012 mPa·s | 914.06 ± 0.74 kg/m3 | 0.864 ± 0.012 mPa·s | 909.44 ± 0.73 kg/m3 | 0.833 ± 0.011 mPa·s | 899.76 ± 0.72 kg/m3 | 0.814 ± 0.011 mPa·s | 890.85 ± 0.71 kg/m3
